Measured values as given in PubChem BioAssay (NCI).
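How tested: cells in 96-well plates exposed to compound for 48 hours at five concentrations. At the TGI there is no net growth.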

What was measured:
Experiment in all cases: NCI anticancer screen, dose series, 48 h
SR leukemia = test system: SR leukemia
RPMI-8226 leukemia = test system: RPMI-8226 leukemia
DMS 114 small cell lung = test system: DMS 114 small cell lung
OVCAR-8 ovarian = test system: OVCAR-8 ovarian
HCC-2998 colon = test system: HCC-2998 colon
M14 melanoma = test system: M14 melanoma
MALME-3M melanoma = test system: MALME-3M melanoma
SNB-19 CNS = test system: SNB-19 CNS
KM20L2 colon = test system: KM20L2 colon
OVCAR-3 ovarian = test system: OVCAR-3 ovarian

| Structure (SMILES) | TGI (SR leukemia) | TGI (RPMI-8226 leukemia) | TGI (DMS 114 small cell lung) | TGI (OVCAR-8 ovarian) | TGI (HCC-2998 colon) | TGI (M14 melanoma) | TGI (MALME-3M melanoma) | TGI (SNB-19 CNS) | TGI (KM20L2 colon) | TGI (OVCAR-3 ovarian) |
| --- | --- | --- | --- | --- | --- | --- | --- | --- | --- | --- |
| CCCCN(CCCC)CC(C(C)=O)C(c1ccccc1)c1c(O)c2ccccc2oc1=O (stereo not given) | > 100 µM | > 100 µM | > 100 µM | > 100 µM | > 100 µM | > 100 µM | > 100 µM | > 100 µM | > 100 µM | > 100 µM |
| COc1ccc(OC(C)C(=O)O)c2c(=O)ccccc12 (stereo not given) | > 100 µM | > 100 µM | > 100 µM | > 100 µM | > 100 µM | > 100 µM | > 100 µM | > 100 µM | > 100 µM | > 100 µM |
| CC(=O)Oc1ccc2c(c1)C(=O)c1nc(C)c(C)nc1C2=O | > 89 µM | > 100 µM | > 76.4 µM | > 100 µM | > 100 µM | > 100 µM | 38 µM | > 93.8 µM | > 100 µM | 59.1 µM |
| N#Cc1cccc(N2C(=O)C3C4C=CC(C3C2=O)C2C(=O)N(c3cccc(C#N)c3)C(=O)C42)c1 (stereo not given) | 49.5 µM | > 56.2 µM | 42 µM | > 63.1 µM | > 56.2 µM | > 63.1 µM | 99.4 µM | > 80.1 µM | > 100 µM | > 100 µM |
| C=C1C[C@@H]2C[C@@H](C)CC(O)[C@]2(CCCN)C1O (stereo not given in full) | > 100 µM | > 100 µM | > 100 µM | > 100 µM | > 100 µM | > 100 µM | > 100 µM | > 100 µM | > 100 µM | > 100 µM |
| O=c1c2cc3ccccc3n2c(=O)c2cc3ccccc3n12 | > 100 µM | > 100 µM | > 100 µM | > 100 µM | > 100 µM | > 100 µM | > 100 µM | > 100 µM | > 100 µM | > 100 µM |
| COC(=O)CC[C@]12C[C@]13CC[C@]1(C)C4C(C)C[C@]5(CC(C)C(=O)O5)OC4CC1(C)C3CCC2C(C)(C)O (stereo not given in full) | > 100 µM | 98.7 µM | > 100 µM | > 100 µM | > 100 µM | > 100 µM | > 100 µM | > 100 µM | > 100 µM | > 100 µM |
| COc1cc(/C=N/N=C(\N)NO)c([N+](=O)[O-])cc1OC | > 100 µM | > 100 µM | 46.2 µM | > 100 µM | > 100 µM | > 100 µM | > 100 µM | > 100 µM | > 100 µM | > 100 µM |
| COc1ccc2c(c1)CN1CCc3c(cc(OC)c(OC)c3OC)C1C2 (stereo not given) | > 100 µM | > 100 µM | > 100 µM | > 100 µM | > 100 µM | > 100 µM | > 100 µM | > 100 µM | > 100 µM | > 100 µM |
| COc1cc2cnc3c4cc(OCc5ccccc5)ccc4ccc3c2cc1OC | 27.1 µM | 20.2 µM | 80.4 µM | > 100 µM | > 100 µM | > 100 µM | > 100 µM | > 100 µM | > 100 µM | > 100 µM |
| CO[C@@]1(c2ccccc2)O[C@H]2OCCC2[C@H]1c1ccc(Cl)cc1 (stereo not given in full) | > 100 µM | > 100 µM | > 100 µM | > 100 µM | > 100 µM | > 100 µM | 84.8 µM | > 100 µM | > 100 µM | 49.7 µM |
